What was measured:
VAV1 [1] = experiment: VAV1 Y174 phosphorylation in Jurkat cells expressing VAV1 mutant, anti-CD3 stimulation; type: cell-based, human; conditions: dasatinib 0 to 10 nM, 30 minutes, FIG. 15
[2] = tested on: angioimmunoblastic T-cell lymphoma (AITL) model mice; experiment: AITL therapeutic transplant model: nude mice injected with donor mouse swollen lymph node-derived cells; type: in vivo
Method: An AITL model is regarded as having been established, but a long incubation period is required to observe oncogenesis after pIpC administration. For this reason, this genetically modified mouse model is not suitable for use in therapeutic experiments. Thus, an attempt was made to establish a transplant model. […] It should be noted that inflammatory cells migrating to the tumor tissue were composed of donor mouse-derived cells and host mouse-derived cells in admixture.
Donor mouse swollen lymph node-derived cells (2×10^7 cells) were all intraperitoneally injected into nude mice and, after 2 weeks (after lymph node swelling was observed by echography in some mice), 5 mg/kg of dasatinib dissolved in a solution of propylene glycol:distill water adjusted to 1:1 was orally administered to the mice for successive 14 days (the dasatinib group: “Dasatinib” in FIG. 17). As a control, nude mice under completely the same conditions were administered with the same volume of the solution alone (propylene glycol: distill water=1:1) according to the same schedule (the control group: “Vehicle” in FIG. 17). The results of these administration experiments are show in FIG. 17.

phosphorylated VAV1 = experiment: Anti-phosphorylated VAV1 staining of swollen lymph node sections of AITL transplant model mice; type: in vivo, mouse; conditions: nude mice; dasatinib three times daily for 2 days, 2 weeks after cell injection; sacrificed on the following day
Method: In addition, donor mouse swollen lymph node-derived cells (2×10^7 cells) were all intraperitoneal injected into nude mice and, after 2 weeks, dasatinib or a control solution was administered three times daily for 2 days in accordance with the above procedure. On the following day, the nude mice were sacrificed, and thin section specimens were prepared from their swollen lymph nodes and then stained with anti-phosphorylated VAV1 antibody.

PLC-gamma 1 = PLC-gamma 1 phosphorylation (Western blot) in Jurkat cells expressing G17V RHOA mutant; type: cell-based, human; conditions: dasatinib 0 to 10 nM, 30 minutes, FIG. 7(B)
Method: (§1) (1) Jurkat cells (T-cell leukemia cell line) engineered with a lentivirus-mediated Tet-On system to express wild-type RHOA cDNA or a RHOA coding region modified to comprise a G to T substitution at position 50 of the coding region (hereinafter referred to as G17V RHOA cDNA) were seeded in RPMI (10% FCS, 1% PS) at 2×10^5 cells/mL in 15 cm petri dishes in triplicate. Doxycycline was added to give a final concentration of 2 μg/mL. On the following day, the cells were collected and centrifuged, and then seeded in RPMI (serum-free) at 6×10^5 cells/mL in 15 cm petri dishes in triplicate. After 4 hours, the cells were collected and washed once with sterile phosphate buffered saline (PBS), and then adjusted to 2×10^4 cells/ml and transferred to 15 ml tubes, followed by incubation at 37° C. for 5 minutes. LEAF™ purified anti-human CD3 Ab (BioLegend) and anti-mouse IgG antibody Ab (at 2 μg/ml each) were added. The cells were incubated at 37° C. for 5 minutes or 30 minutes. Cold PBS (10 ml) was added to each tube, followed by centrifugation to remove the supernatants. Lysis buffer (supplemented in advance with complete protease inhibitor and PhosSTOP) was added in a volume of 1000 μl/tube. The tubes were incubated on ice for 20 minutes and centrifuged to collect the supernatants. Laemuli's buffer and DTT were added, followed by incubation at 95° C. for 5 minutes. […]

NFAT activity = experiment: NFAT luciferase reporter activity in Jurkat cells expressing VAV1 mutant; type: cell-based, human; conditions: dasatinib 0 to 10 nM, 30 minutes, anti-CD3 stimulation, FIG. 16
Method: In accordance with the protocol of Dual Luciferase Reporter Assay (Promega), firefly luciferase activity and renilla luciferase activity were each measured, and the value of firefly luciferase was divided by the value of renilla luciferase to correct the transfection efficiency. In more detail, the cells were mixed with Passive Lysis Buffer (PLB) in a volume of 100 μl/tube, followed by freezing at −80° C. to lyse the cells. After centrifugation, the supernatants were collected. In a 96-well plate. LARII was dispensed in a volume of 100 μl/well. 20 μl of each cell lysate was added. The plate was mounted on a luminometer and Stop & Glo® Reagent was added in 100 μL volumes, followed by measurement again with the luminometer.
In a 96-well flat-bottomed plate, LEAF™ purified anti-human CD3 Ab (BioLegend) adjusted to 10 μg/ml with PBS was dispensed in a volume of 50 μL/well and incubated overnight at 4° C. After removal of the antibody solution, each well was washed three times with sterile PBS.
Jurkat cells were seeded at 5×10^4 cells/well in a 24-well plate. […] After 30 minutes, the cells were collected and then stimulated with LEAF™ purified anti-human CD3 Ab (BioLegend) and measured for firefly luciferase activity and renilla luciferase activity by reference to Example 3 described above, etc.

[3] = tested on: interleukin-2 mRNA expression; experiment: Interleukin-2 mRNA expression in Jurkat cells expressing G17V RHOA mutant, CD3/CD28 bead stimulation; type: cell-based, human; conditions: dasatinib 0 to 10 nM, CD3/CD28 beads, 3 hours, FIG. 8
Method: Dynabeads T-activator CD3/CD28 (Veritas) were mixed with buffer (PBS supplemented with 0.1% BSA+2 mM EDTA, pH 7.4) and allowed to stand on a magnetic rack to remove the supernatant.
Jurkat cells engineered with a lentivirus-mediated Tet-On system to express wild-type or G17V RHOA cDNA were seeded in RPMI (10% FCS, 1% PS) at 2×10^5 cells/mL in 15 cm petri dishes in triplicate. Doxycycline was added to give a final concentration of 2 μg/mL. On the following day, the cells were collected and seeded in a 24-well plate. The Dynabeads T-activator CD3/CD28 (Veritas) washed above were added. After 3 and 6 hours, the cells were collected. The cells were washed once with PBS and their RNA was extracted with an RNeasy Mini Kit (Qiagen). […] IL-2 mRNA was measured with the primer/probe sets of Taqman Gene Expression Assays (Thermo Fisher Scientific). rRNA was measured with TaqMan® Ribosomal RNA Control Reagents (Thermo Fisher Scientific) and used for correction.
Jurkat cells engineered with a lentivirus-mediated Tet-On system to express wild-type RHOA or G17V RHOA cDNA were seeded in RPMI (10% FCS, 1% PS) at 2×10^5 cells/mL in 15 cm petri dishes in triplicate. […] IL-2 mRNA was measured with the primer/probe sets of Taqman Gene Expression Assays (Thermo Fisher Scientific). rRNA was measured with TaqMan® Ribosomal RNA Control Reagents (Thermo Fisher Scientific) and used for correction.

VAV1 [4] = experiment: VAV1 Y174 phosphorylation (Western blot) in Jurkat cells expressing G17V RHOA mutant, anti-CD3 stimulation; type: cell-based, human; conditions: dasatinib 0 to 10 nM, 30 minutes, FIG. 7(A)
Method: as §1

[5] = 5 mg/kg orally for successive 14 days, FIG. 17

## Cc1nc(Nc2ncc(C(=O)Nc3c(C)cccc3Cl)s2)cc(N2CCN(CCO)CC2)n1 [dasatinib, N-(2-chloro-6-methyl-phenyl)-2-[[6-[4-(2-hydroxyethyl)-1-piperazinyl]-2-methyl-4-pyrimidinyl]amino]-5-thiazolecarboxamide]
VAV1 [1]
  enhanced Y174 phosphorylation induced by VAV1 mutant expression: cancels the enhanced Y174 phosphorylation
[2]; 5 mg/kg orally for successive 14 days starting 2 weeks after cell injection, observation period of 150 days, 6/18
  mice showing progression of lymphoma (body weight loss and hyposthenia): 33.3%
[2]; [5]
  progression of lymphoma versus control group: progression was significantly suppressed
  survival versus control group: survival was prolonged
Phosphorylated VAV1
  phosphorylated VAV1 staining in swollen lymph nodes: phosphorylated VAV1 was not stained
PLC-gamma 1
  enhanced PLC-gamma 1 phosphorylation induced by G17V RHOA mutant expression: cancels the enhanced PLC-gamma 1 phosphorylation
NFAT activity
  enhanced NFAT activity induced by VAV1 mutant expression: cancels the enhanced NFAT activity
[3]
  enhanced interleukin-2 mRNA expression induced by G17V RHOA mutant expression: cancels the enhanced interleukin-2 mRNA expression
VAV1 [4]
  enhanced Y174 phosphorylation (VAV1) induced by G17V RHOA mutant expression: cancels the enhanced Y174 phosphorylation

Reference: patent US11058685B2, “Therapeutic agent for tumors identified by phosphorylation of proto-oncogene protein belonging to VAV family” (priority 2016, dated 2021)
